Test results reported in patent US20070167387A1, “Novel artificial nucleic acids of n-o bond crosslinkage type” (TAKESHI IMANISHI, priority 2003, published 2007).

What was measured:
Assay type in all cases: binding
[1] = test system: DNA strand (5′-AGCAAAAAACGC-3′); assay: Melting point (Tm) measurement, duplex-forming capacity with DNA strand; conditions: 100 mM NaCl, 10 mM Na2HPO4 buffer (pH7.2), [strand] = 4 μM, average of 3 or more experiments
Description: (§1) The oligonucleotide analogues (1) to (5) and (13) to (17) synthesized in the Examples (i.e., antisense strands), and a sense strand of a natural DNA or RNA oligonucleotide were annealed. The melting points (Tm) of the annealing products were measured to investigate the duplex-forming capacity of the antisense strands.
(§2) Sample solutions (500 μL) with end concentrations of NaCl 100 mM, sodium phosphate buffer (pH 7.2) 10 mM, antisense strand 4 μM, and sense strand 4 μM were bathed in boiling water, and cooled down to room temperature over the course of 10 hours. A stream of nitrogen was flowed through a cell chamber of a spectrophotometer (Beckman, DU-650) to prevent dew formation, and the sample solutions were gradually cooled down to 5° C. Further, the sample solutions were maintained at 10° C. for 20 minutes, and then their measurements were started. The temperature was raised up to 90° C. at a rate of 0.5° C./min, and the ultraviolet absorption at 260 nm was measured.

[2] = test system: RNA strand (5′-AGCAAAAAACGC-3′); assay: Melting point (Tm) measurement, duplex-forming capacity with RNA strand; conditions: 100 mM NaCl, 10 mM Na2HPO4 buffer (pH7.2), [strand] = 4 μM, average of 3 or more experiments
Description: as §1, §2

[3] = test system: dsDNA 5′-d(GCTGCT AAAAAGAAAGAGAGATCGTCG)-3′ / 3′-d(CGACGATTTTTCTTTCTCTCTAGCAGC)-5′; assay: Tm measurement, triplex-forming capacity with dsDNA, with MgCl2 (Table 5-2); conditions: 140 mM KCl, 10 mM MgCl2, 7 mM Na2HPO4 buffer (pH 7.0), each strand 1.5 μM
Description: as §2
(§3) In connection with the oligonucleotide analogues (6) to (11) and (18) to (21) synthesized in the Examples, the triplex-forming capacity with the target double-stranded DNA's indicated below was investigated by the same method as in Experimental Example 1. The salt concentrations and pH during measurement complied with the conditions described below the respective tables.

[4] = test system: dsDNA 5′-d(GCT AAAAAGAAAGAGAGATCG)-3′ / 3′-d(CGATTTTTCTTTCTCTCTAGC)-5′; assay: Tm measurement, triplex-forming capacity with dsDNA (Table 5-1); conditions: 140 mM KCl, 7 mM Na2HPO4 buffer (pH 7.0), each strand 1.5 μM
Description: as §2, §3

[5] = test system: dsDNA 5′-d([…])-3′ / 3′-d(CGATTTTTCTNTCTCTCTAGC)-5′; assay: Sequence selective triplex-formation, match and mismatch dsDNA (Table 5-3); conditions: for Tm: 140 mM KCl, 7 mM sodium phosphate buffer (pH 7.0), each strand 1.5 μM
Description: as §2, §3

Substance “5′-GCGTTTTTTGCT-3′ (unmodified DNA) [natural antisense strand, reference compound]” has a Tm [1] of 50 °C and a Tm [2] of 45 °C.

“5′-TTTTT^mCTTT^mCT^mCT^mCT-3′ (TTTTTCTTTCTCTCT; all C 5-methyl, sugars by position and backbone not given here) [unmodified triplex-forming oligonucleotide, Z = natural T, reference compound]” was tested, and the Tm [3] was 43 °C, the Tm [4] was 33 °C and the Tm ([5]; M·N = A·T (match)) was 43 °C. The “ΔTm = Tm(mismatch) − Tm(match)” value ([5]; M·N = C·G) was −18 °C, the Tm ([5]; M·N = C·G (mismatch)) was 25 °C and the “ΔTm = Tm(mismatch) − Tm(match)” value ([5]; M·N = G·C) was −22 °C. The Tm ([5]; M·N = G·C (mismatch)) was 21 °C, the “ΔTm = Tm(mismatch) − Tm(match)” value ([5]; M·N = T·A) was −25 °C and the Tm ([5]; M·N = T·A (mismatch)) was 18 °C.

“5′-TTTTT^mCYYY^mCT^mCT^mCT-3′ [Oligonucleotide analogue (20)]” was tested, and the Tm [3] was 71 °C, the ΔTm/modification [3] was “+9.3 °C” and the Tm [4] was 59 °C. The ΔTm/modification [4] was “+8.7 °C”.

With “5′-TTTTX^mCTXT^mCX^mCT^mCT-3′ [Oligonucleotide analogue (7)]” the Tm [3] was 61 °C, the ΔTm/modification [3] was “+6.0 °C” and the Tm [4] was 47 °C. The ΔTm/modification [4] was “+4.6 °C”.

With “5′-TTTTY^mCTYT^mCY^mCT^mCT-3′ [Oligonucleotide analogue (19)]” the Tm [3] was 73 °C, the ΔTm/modification [3] was “+10.0 °C” and the Tm [4] was 60 °C. The ΔTm/modification [4] was “+9.0 °C”.

For “5′-TXTTX^mCTXT^mCX^mCTX*T-3′ [Oligonucleotide analogue (10)]”, the Tm [3] was 63 °C, the ΔTm/modification [3] was “+4.0 °C” and the Tm [4] was 50 °C. The ΔTm/modification [4] was “+3.4 °C”.

In the case of “5′-XTTTX^mCTTX^mCT^mCX^mCT-3′ [Oligonucleotide analogue (11)]”, the Tm [3] is reported as 59 °C, the ΔTm/modification [3] is reported as “+4.0 °C” and the Tm [4] is reported as 45 °C. The ΔTm/modification [4] was “+3.0 °C”.

“5′-XTXTX^mCXTX^mCX^mCX^mCT-3′ [Oligonucleotide analogue (9)]” was tested, and the Tm [3] was > 80 °C, the ΔTm/modification [3] was “> +5 °C” and the Tm [4] was 59 °C. The ΔTm/modification [4] was “+3.7 °C”.

With “5′-YTYTY^mCYTY^mCY^mCY^mCT-3′ [Oligonucleotide analogue (21)]” the Tm [3] was > 80 °C, the ΔTm/modification [3] was “> +5 °C” and the Tm [4] was 78 °C. The ΔTm/modification [4] was “+6.4 °C”.
